Test results from article PMC11425624, “Synthesis of Novel Cu(II), Co(II), Fe(II), and Ni(II) Hydrazone Metal Complexes as Potent Anticancer Agents: Spectroscopic, DFT, Molecular Docking, and MD Simulation Studies” (ACS Omega, 2024).

Key:
A549 = assay: MTT cytotoxic activity assay, A549 cells, 72 h; assay type: cell-based, human; conditions: for IC50: A549 human lung cancer cell line, MTT
Protocol: (§1) The complexes were tested in human lung cancer and normal embryonic kidney cell lines for 72 h.
The MTT stock solution (50 μL, 5 mg/mL) was added to each well. Absorbance was measured using an Epoch 2 ELISA plate reader at 590 nm. The IC50 values were calculated using GraphPad Prism Software version 5.

HEK-293T = assay: MTT cytotoxic activity assay, HEK-293T cells, 72 h; assay type: cell-based; conditions: HEK-293T healthy human embryonic kidney cell line
Protocol: as §1
Cytotoxic activity studies of compounds (L, L-Cu, L-Co, and L-Fe) were conducted according to the literature.[60] Human lung epithelial carcinoma cells (A549; ATCC CCL-185) and healthy human embryonic kidney cells (HEK-293T) were cultured in Dulbecco’s modified Eagle’s medium-high-glucose supplemented with 10% fetal bovine serum and 1% GlutaMAX in a CO2 incubator at 37 °C. Cells seeded in 96-well plates were exposed to 200, 100, 50, and 25 μM of compounds for 72 h. The MTT stock solution (50 μL, 5 mg/mL) was added to each well. Absorbance was measured using an Epoch 2 ELISA plate reader at 590 nm. The IC50 values were calculated using GraphPad Prism Software version 5.

[1] = Dissolution in cytotoxicity assay medium (0.5% DMSO, DMEM); assay type: physicochemical
Source text: When the ligand and L-Cu were compared, the cytotoxic effect of L-Cu was almost 17 times more cytotoxic than that of the ligand, including 2-hydroxybenzylidene and 4-fluorobenzohydrazide groups. […] However, the effect of the other two metal complexes (L-Co and L-Fe) and the ligand used as the starting material on the growth of A549 cells was very low compared to that of the positive control drug.

[2] = A549, 50 μM concentration of compound, 72 h
[3] = A549, 200 μM concentration of compound, 72 h

Structure (SMILES) | Cell viability (A549; [2]) [%] | Cell viability rate (A549; [3]) [%] | Effectiveness relative to cisplatin (A549; A549 cells) | IC50 (A549; 72 h) [µM] | Times more cytotoxic than the ligand (A549; L-Cu compared with ligand L) [times] | IC50 (HEK-293T) [µM] | viability at 50 µM (A549; Homo sapiens, A549, 50 μM concentration of compound, 72 h, read-out: Cell viability) [%] | viability at 200 µM (A549; Homo sapiens, A549, 200 μM concentration of compound, 72 h, read-out: Cell viability rate) [%] | Solubility in assay medium [1]
O=C(NN=Cc1ccccc1[O][Cu][O]c1ccccc1C=NNC(=O)c1ccc(F)cc1)c1ccc(F)cc1 [L-Cu] | 5.10 | 4.66 | approximately twice | 2.14 | ~17 | 2.32 | – | – | –
N.N.[Cl][Pt][Cl] [cisplatin, reference compound] | – | – | – | 4.23 | – | 2.62 | – | – | –
O=C(NN=Cc1ccccc1O)c1ccc(F)cc1 [L, 4-Fluoro-N′-(2-hydroxybenzylidene)benzohydrazide] | – | – | – | 36.7 | – | 18.2 | 44.9 | 8.51 | –
O=C(NN=Cc1ccccc1[O][Fe][O]c1ccccc1C=NNC(=O)c1ccc(F)cc1)c1ccc(F)cc1 [L-Fe] | 92.96 | 5.72 | – | 78.8 | – | 69.2 | – | – | –
O.O=C(NN=Cc1ccccc1[O-])c1ccc(F)cc1.O=C(NN=Cc1ccccc1[O-])c1ccc(F)cc1.[Ni+2] [L-Ni] | – | – | – | – | – | – | – | – | not fully dissolved in 0.5% DMSO and was precipitated in DMEM
